Legend:
Caco-2 [1] = experiment: cell viability relative to DMSO; higher = less toxic; conditions: 72 h
Calu-3 [2] = experiment: as above; conditions: 72 h
Vero E6 [3] = experiment: as above; conditions: 72 h
U2OS [4] = experiment: as above; conditions: 72 h
[5] = test system: A549-ACE2 infected with SARS-CoV-2; experiment: cell count relative to DMSO; higher = less toxic; conditions: 24 h
Caco-2 [6] = experiment: relative viability EC50 (midpoint between 100% and the lowest measured viability); higher = less toxic; conditions: 72 h
Calu-3 [7] = experiment: as above; conditions: 72 h
Vero E6 [8] = experiment: as above; conditions: 72 h
U2OS [9] = experiment: as above; conditions: 72 h
[10] = test system: A549-ACE2 infected with SARS-CoV-2; experiment: morphology score (similarity to uninfected cells); higher = more like uninfected cells; conditions: 24 h
A549-ACE2 = experiment: drug-induced phospholipidosis relative to tamoxifen; higher = more phospholipidosis
[11] = test system: A549-ACE2 infected with SARS-CoV-2; experiment: SARS-CoV-2 infection rate relative to DMSO; higher = more infection; conditions: 24 h
Caco-2 [12] = experiment: drug sensitivity score (DSS) for viability; higher = more toxic; extreme values may be limits of the assay; conditions: 72 h
Calu-3 [13] = experiment: as above; conditions: 72 h
Vero E6 [14] = experiment: as above; conditions: 72 h
U2OS [15] = experiment: as above; conditions: 72 h

[Cl][Ru-]([Cl])([Cl])[Cl].[Na+].c1ccc2[nH]ncc2c1.c1ccc2[nH]ncc2c1 [NKP-1339]
Conditions | SARS-CoV-2 infection rate, [11] [%] | cell count, [5] [%] | cell viability, Caco-2 [1] [%] | cell viability, Calu-3 [2] [%] | cell viability, U2OS [4] [%] | cell viability, Vero E6 [3] [%] | morphology score, [10]
1 nM | – | – | 98.5 | 96.2 | 94.2 | 95.7 | –
10 nM | – | – | 96.6 | 91.9 | 95.9 | 99.2 | –
100 nM | – | – | 94.3 | 93.2 | 100 | 98.9 | –
0.3 µM | 95 | 98 | – | – | – | – | 0.32
1000 nM | – | – | 89.9 | 111 | 98.4 | 104 | –
3 µM | 99 | 103 | – | – | – | – | 0.06
10000 nM | – | – | 85.2 | 96.1 | 99.5 | 103 | –
10 µM | 97 | 100 | – | – | – | – | 0.14
30 µM | 91 | 105 | – | – | – | – | 0.16

Conditions | drug sensitivity score | relative viability EC50 [µM]
Caco-2 [6] | – | > 10
Caco-2 [12] | 0.5 | –
Calu-3 [7] | – | > 10
Calu-3 [13] | 0 | –
U2OS [9] | – | > 10
U2OS [15] | 0 | –
Vero E6 [8] | – | > 10
Vero E6 [14] | 0 | –

drug-induced phospholipidosis [%], A549-ACE2
Conditions | 0.3 µM | 0.833333 µM | 3.33333 µM | 6.66667 µM | 10 µM | 30 µM
24 h | -0.57 | 0.18 | -2.08 | -1.49 | -1.44 | 2.85
48 h | 0.31 | 0.08 | -0.84 | -0.18 | -0.5 | 1.39
72 h | 0.516 | -1.21 | -0.615 | -0.927 | 0.0701 | 3.63

Reference: the supplement of paper PMC13380429
